The values below come from ChEMBL document CHEMBL2412951, “Resonance light scattering technique as a new tool to determine the binding mode of anticancer drug oridonin to DNA” (Eur J Med Chem, 2013).

Common to all, as to type: nucleic-acid assay
Holding throughout (conditions): Bos taurus

Assay [1] relates to DNA. Nature of the assay: Binding affinity to calf thymus DNA by Stern-Volmer plot analysis.
In assay [2] the test system is DNA. As to the kind of experiment: Binding affinity to calf thymus DNA at 10^-5 M by atomic force microscopic analysis.
For assay [3], the system named is DNA. As to the kind of experiment: Binding affinity to calf thymus DNA at 5 X 10^-5 M by fluorescence polarization assay.
The test system of assay [4] is DNA. As to the kind of experiment: Binding affinity to calf thymus DNA at 1 X 10^-5 M by spectrofluorimetric analysis.
The test system of assay [5] is Calf thymus DNA. Nature of the assay: Binding affinity to calf thymus dsDNA at 1 X 10^-5 to 2 x 10^-5 M after 10 mins by UV/vis spectrophotometric analysis.
Assay [6] relates to Calf thymus DNA. As to the kind of experiment: Binding affinity to calf thymus double helix DNA at 90 uM by resonance light scattering analysis in presence of 0.005 to 0.2 M NaCl.
Assay [7] deals with DNA. As to the kind of experiment: Binding affinity to calf thymus DNA at 1 ug/ml at pH 2.5 by SEM analysis.
Assay [8] concerns DNA. As to the kind of experiment: Binding affinity to calf thymus DNA at 90 uM at pH 2 to 8.5 by resonance light scattering analysis.
Assay [9] relates to DNA. Nature of the assay: Binding affinity to calf thymus DNA at 10 to 160 uM by resonance light scattering analysis.

The source made the active and inactive calls. The rule behind the calls is not given here.

Consider `C=C1C(=O)[C@]23[C@H](O)[C@H]1CC[C@H]2[C@@]12CO[C@]3(O)[C@@H](O)[C@@H]1C(C)(C)CC[C@@H]2O`, for which, in the assay on DNA [1], the KSV came to 1.79 ×10⁵ /M. For the same molecule, the outcome in the assay on DNA [2], with DNA [3], in the assay with DNA [4], in the assay on Calf thymus DNA [5], in the assay with Calf thymus DNA [6] and in the assay with DNA [7] was Active. Moreover, the outcome in the assay with DNA [8] and in the assay on DNA [9] was Active.
